Activity calls are given as the source filed them. No cut-off for these calls is given here.

From ChEMBL document CHEMBL4680187, “Optimization of EphA2 antagonists based on a lithocholic acid core led to the identification of UniPR505, a new 3α-carbamoyloxy derivative with antiangiogenetic properties” (Eur J Med Chem, 2020) come the findings set out here.

The target in one series is T1, Ephrin type-B receptor 4 (Mus musculus, UniProt P54761).
T1 sequence (P54761 whole entry): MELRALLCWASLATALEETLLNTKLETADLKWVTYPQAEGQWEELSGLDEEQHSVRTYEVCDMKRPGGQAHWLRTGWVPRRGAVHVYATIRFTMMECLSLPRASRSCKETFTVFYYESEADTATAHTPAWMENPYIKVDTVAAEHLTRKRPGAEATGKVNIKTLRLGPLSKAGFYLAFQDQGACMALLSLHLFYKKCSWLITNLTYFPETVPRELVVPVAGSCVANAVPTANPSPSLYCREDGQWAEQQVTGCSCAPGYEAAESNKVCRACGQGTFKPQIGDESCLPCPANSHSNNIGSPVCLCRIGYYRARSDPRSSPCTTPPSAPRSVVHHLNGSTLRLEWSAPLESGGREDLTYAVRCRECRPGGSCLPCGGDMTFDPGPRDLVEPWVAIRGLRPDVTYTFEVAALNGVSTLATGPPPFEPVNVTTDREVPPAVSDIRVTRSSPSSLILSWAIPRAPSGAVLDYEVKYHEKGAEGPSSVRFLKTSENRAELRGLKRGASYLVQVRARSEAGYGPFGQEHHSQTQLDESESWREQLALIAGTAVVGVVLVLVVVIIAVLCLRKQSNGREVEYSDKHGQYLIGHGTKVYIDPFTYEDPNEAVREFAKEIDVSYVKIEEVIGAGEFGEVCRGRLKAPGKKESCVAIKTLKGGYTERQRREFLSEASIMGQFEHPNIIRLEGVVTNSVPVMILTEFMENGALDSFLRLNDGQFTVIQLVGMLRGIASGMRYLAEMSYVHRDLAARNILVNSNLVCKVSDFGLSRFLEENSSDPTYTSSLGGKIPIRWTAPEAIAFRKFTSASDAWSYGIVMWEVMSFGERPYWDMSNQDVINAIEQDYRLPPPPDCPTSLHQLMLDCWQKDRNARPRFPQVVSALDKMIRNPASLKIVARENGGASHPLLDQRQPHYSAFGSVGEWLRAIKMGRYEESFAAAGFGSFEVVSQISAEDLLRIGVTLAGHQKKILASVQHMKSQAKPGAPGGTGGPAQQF
As to the kind of experiment: Displacement of biotinylated ephrin-B1-Fc from mouse EphB4 Fc preincubated for 1 hr followed by ephrin-B1-FC addition and measured after 4 hrs by ELISA. (An ELISA detects its analyte on a solid surface through an enzyme-linked reagent.)

Series [1] concerns HUVEC. The series is described as follows: Cytotoxicity against HUVEC cells after 2 to 16 hrs by LDH assay. The format is cell-based. Particulars: human, time 2-16 hrs.
Series [2] deals with HUVEC. As to the kind of experiment: Antiangiogenic activity in HUVEC assessed as reduction in number of polygons formation after 16 hrs by matrigel-based microscopic analysis. Particulars: Homo sapiens.
Another series deals with Chorioallantoic membrane. The series is described as follows: Antiangiogenic activity in Leghorn chicken fertilized egg chorioallantoic membrane assessed as reduction in VEGF stimulated neovascularization at 10 uM measured after 3 days by CAM assay. The format is functional, tissue-based. Particulars: Gallus gallus, time 3.0 day.
For the next series, the target named is Ephrin type-A receptor 2 (Mus musculus, UniProt Q03145). As to the kind of experiment: Displacement of biotinylated ephrin-A1-Fc from recombinant mouse c-terminal His6-tagged EphA2 Fc (Ala22 to Ala535 residues) preincubated for 1 hr followed by ephrin-A1-FC addition and measured after 4 hrs by ELISA.
Chain of Ephrin type-A receptor 2 (Q03145 whole entry): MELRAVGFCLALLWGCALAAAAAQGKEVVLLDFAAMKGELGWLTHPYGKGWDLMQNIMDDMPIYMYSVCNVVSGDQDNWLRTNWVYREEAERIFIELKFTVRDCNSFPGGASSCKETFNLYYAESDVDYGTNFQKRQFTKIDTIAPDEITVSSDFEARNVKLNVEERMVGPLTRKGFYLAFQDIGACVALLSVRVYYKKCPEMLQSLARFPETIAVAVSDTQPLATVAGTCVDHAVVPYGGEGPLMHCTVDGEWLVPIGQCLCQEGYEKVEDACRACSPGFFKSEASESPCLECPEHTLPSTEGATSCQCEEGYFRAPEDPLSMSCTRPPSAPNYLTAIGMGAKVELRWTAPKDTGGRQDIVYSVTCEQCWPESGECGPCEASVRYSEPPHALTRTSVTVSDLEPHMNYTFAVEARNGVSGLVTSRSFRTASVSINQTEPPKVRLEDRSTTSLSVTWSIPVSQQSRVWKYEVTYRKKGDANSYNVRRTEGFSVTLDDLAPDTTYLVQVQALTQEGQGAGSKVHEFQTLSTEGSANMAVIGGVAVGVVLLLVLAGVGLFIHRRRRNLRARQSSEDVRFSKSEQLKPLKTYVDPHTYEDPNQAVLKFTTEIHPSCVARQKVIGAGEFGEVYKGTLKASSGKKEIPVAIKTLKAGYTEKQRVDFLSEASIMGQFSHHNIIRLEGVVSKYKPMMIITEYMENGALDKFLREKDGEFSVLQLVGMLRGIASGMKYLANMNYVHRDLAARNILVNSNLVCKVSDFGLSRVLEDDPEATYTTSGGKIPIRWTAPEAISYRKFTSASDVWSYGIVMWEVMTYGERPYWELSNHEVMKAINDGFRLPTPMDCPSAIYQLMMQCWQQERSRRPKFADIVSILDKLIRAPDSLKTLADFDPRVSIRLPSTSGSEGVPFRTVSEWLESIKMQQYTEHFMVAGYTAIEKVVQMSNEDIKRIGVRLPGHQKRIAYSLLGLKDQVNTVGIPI
The target in another series is T2, Ephrin type-A receptor 1 (Homo sapiens, UniProt P21709).
T2 sequence (P21709 whole entry): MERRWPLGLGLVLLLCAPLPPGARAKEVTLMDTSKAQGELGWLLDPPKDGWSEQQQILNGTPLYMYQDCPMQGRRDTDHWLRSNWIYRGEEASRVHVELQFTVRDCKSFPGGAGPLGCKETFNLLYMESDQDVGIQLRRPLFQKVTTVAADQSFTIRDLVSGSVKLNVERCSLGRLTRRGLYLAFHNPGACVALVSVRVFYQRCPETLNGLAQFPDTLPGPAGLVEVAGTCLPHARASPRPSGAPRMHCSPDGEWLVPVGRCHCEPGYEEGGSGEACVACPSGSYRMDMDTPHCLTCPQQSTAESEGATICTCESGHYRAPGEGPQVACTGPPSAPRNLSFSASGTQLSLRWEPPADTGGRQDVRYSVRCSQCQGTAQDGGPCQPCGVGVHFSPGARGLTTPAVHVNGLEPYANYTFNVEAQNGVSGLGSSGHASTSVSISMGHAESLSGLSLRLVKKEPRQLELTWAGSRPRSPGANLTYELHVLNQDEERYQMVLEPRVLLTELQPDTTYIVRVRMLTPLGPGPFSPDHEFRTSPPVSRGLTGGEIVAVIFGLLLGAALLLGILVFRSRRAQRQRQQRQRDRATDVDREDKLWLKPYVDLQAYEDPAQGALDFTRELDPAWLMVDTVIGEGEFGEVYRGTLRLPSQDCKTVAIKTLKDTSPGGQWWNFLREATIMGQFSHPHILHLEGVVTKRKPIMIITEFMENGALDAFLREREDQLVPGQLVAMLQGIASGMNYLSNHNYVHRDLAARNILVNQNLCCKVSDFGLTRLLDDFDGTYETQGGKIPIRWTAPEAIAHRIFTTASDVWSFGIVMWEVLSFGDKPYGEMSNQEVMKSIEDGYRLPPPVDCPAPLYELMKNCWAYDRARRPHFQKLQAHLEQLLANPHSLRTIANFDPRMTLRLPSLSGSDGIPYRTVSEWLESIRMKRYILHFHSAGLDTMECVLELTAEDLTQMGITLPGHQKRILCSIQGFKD
The series is described as follows: Displacement of biotinylated ephrin-A1-Fc from human EphA1 Fc preincubated for 1 hr followed by ephrin-A1-FC addition and measured after 4 hrs by ELISA.

The IC50 is the concentration needed to halve the response being measured. Take `CCNC(=O)O[C@@H]1CC[C@@]2(C)[C@H](CC[C@@H]3[C@@H]2CC[C@]2(C)[C@@H]([C@H](C)CCC(=O)N[C@H](CC(=O)O)Cc4c[nH]c5ccccc45)CC[C@@H]32)C1`: the IC50 at Ephrin type-B receptor 4 is over 30000 nM; in the series on HUVEC [2] it was 3000 nM; on Ephrin type-A receptor 2, 950 nM; on Ephrin type-A receptor 1, over 30000 nM. For the same compound, the Activity entry with HUVEC [1] was “Non-Toxic”. In addition, the result in the series on Chorioallantoic membrane was Active.
